Data from PubChem BioAssay (NCI).
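96-well plates; 48 h exposure; 5 concentrations. Endpoints by linear interpolation between flanking doses. Not reached: highest tested concentration assigned. Here, GI50 denotes the concentration required for 50% inhibition of growth. At the TGI there is no net growth.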

How the values were obtained:
Assay in all cases: inhibition of tumour cell growth, NCI panel, 48 h
[1] = tested on: OVCAR-8 ovarian
[2] = tested on: MALME-3M melanoma
[3] = tested on: MCF7 breast
[4] = tested on: UACC-62 melanoma
[5] = tested on: HS 578T breast
[6] = tested on: U251 CNS
[7] = tested on: BT-549 breast
[8] = tested on: SK-MEL-28 melanoma
[9] = tested on: PC-3 prostate
[10] = tested on: NCI-H226 lung
[11] = tested on: SW-620 colon
[12] = tested on: HOP-92 NSCLC
[13] = tested on: TK-10 renal
[14] = tested on: NCI-H522 lung
[15] = tested on: LOX IMVI melanoma
[16] = tested on: OVCAR-5 ovarian
[17] = tested on: DU-145 prostate
[18] = tested on: COLO 205 colon
[19] = tested on: EKVX NSCLC
[20] = tested on: SF-539 CNS
[21] = tested on: M14 melanoma
[22] = tested on: HCT-15 colon
[23] = tested on: SK-MEL-5 melanoma
[24] = tested on: MDA-MB-231 breast
[25] = tested on: SN12C renal
[26] = tested on: IGROV1 ovarian
[27] = tested on: T-47D breast
[28] = tested on: UACC-257 melanoma
[29] = tested on: HOP-62 NSCLC
[30] = tested on: 786-0 renal
[31] = tested on: SF-268 CNS
[32] = tested on: CCRF-CEM leukemia
[33] = tested on: KM12 colon
[34] = tested on: ACHN renal
[35] = tested on: CAKI-1 renal
[36] = tested on: OVCAR-4 ovarian
[37] = tested on: UO-31 renal
[38] = tested on: SNB-75 CNS
[39] = tested on: HCT-116 colon
[40] = tested on: RPMI-8226 leukemia
[41] = tested on: HL-60(TB) leukemia
[42] = tested on: K-562 leukemia
[43] = tested on: NCI-H460 lung
[44] = tested on: MDA-MB-435
[45] = tested on: SK-OV-3 ovarian
[46] = tested on: NCI-H23 lung
[47] = tested on: NCI/ADR-RES ovarian
[48] = tested on: A549 NSCLC
[49] = tested on: HT29 colon
[50] = tested on: SF-295 CNS
[51] = tested on: HCC-2998 colon
[52] = tested on: A498 renal
[53] = tested on: MOLT-4 leukemia
[54] = tested on: RXF 393 renal
[55] = tested on: SR leukemia
[56] = tested on: SNB-19 CNS
[57] = tested on: SK-MEL-2 melanoma

COc1ccc(/C=N\NC(=O)c2ccc3nc(-c4ccc(Br)cc4)[nH]c3c2)cc1
GI50 [1]: 2200 nM
TGI [1]: 5160 nM
GI50 [2]: 1760 nM
TGI [2]: 3790 nM
GI50 [3]: 1920 nM
TGI [3]: 5810 nM
GI50 [4]: 2510 nM
TGI [4]: 7200 nM
GI50 [5]: 2340 nM
TGI [5]: 5470 nM
GI50 [6]: 1940 nM
TGI [6]: 3550 nM
GI50 [7]: 2640 nM
TGI [7]: 7060 nM
GI50 [8]: 1980 nM
TGI [8]: 4100 nM
GI50 [9]: 1790 nM
TGI [9]: 3720 nM
GI50 [10]: 2650 nM
TGI [10]: 16800 nM
GI50 [11]: 2170 nM
TGI [11]: 4640 nM
GI50 [12]: 1900 nM
TGI [12]: 4650 nM
GI50 [13]: 2380 nM
TGI [13]: 5060 nM
GI50 [14]: 2590 nM
TGI [14]: 11200 nM
GI50 [15]: 1930 nM
TGI [15]: 4170 nM
GI50 [16]: 2680 nM
TGI [16]: 7270 nM
GI50 [17]: 3070 nM
TGI [17]: 9390 nM
GI50 [18]: 1940 nM
TGI [18]: 5360 nM
GI50 [19]: 2220 nM
TGI [19]: 5270 nM
GI50 [20]: 1760 nM
TGI [20]: 3470 nM
GI50 [21]: 2630 nM
TGI [21]: 7470 nM
GI50 [22]: 3700 nM
TGI [22]: 22900 nM
GI50 [23]: 2030 nM
TGI [23]: 4380 nM
GI50 [24]: 2430 nM
TGI [24]: 5930 nM
GI50 [25]: 2400 nM
TGI [25]: 5940 nM
GI50 [26]: 2220 nM
TGI [26]: 7240 nM
GI50 [27]: 1850 nM
TGI [27]: 4310 nM
GI50 [28]: 2140 nM
TGI [28]: 4780 nM
GI50 [29]: 1870 nM
TGI [29]: 4210 nM
GI50 [30]: 2050 nM
TGI [30]: 4200 nM
GI50 [31]: 2310 nM
TGI [31]: 5930 nM
GI50 [32]: 6910 nM
TGI [32]: > 100000 nM
GI50 [33]: 3190 nM
TGI [33]: 12800 nM
GI50 [34]: 2270 nM
TGI [34]: 6220 nM
GI50 [35]: 2310 nM
TGI [35]: 6670 nM
GI50 [36]: 2140 nM
TGI [36]: 5160 nM
GI50 [37]: 1700 nM
TGI [37]: 5440 nM
GI50 [38]: 1930 nM
TGI [38]: 4690 nM
GI50 [39]: 2650 nM
TGI [39]: 6070 nM
GI50 [40]: 2120 nM
TGI [40]: 8380 nM
GI50 [41]: 36600 nM
TGI [41]: > 100000 nM
GI50 [42]: 2890 nM
TGI [42]: 10400 nM
GI50 [43]: 1740 nM
TGI [43]: 3370 nM
GI50 [44]: 2910 nM
TGI [44]: 8110 nM
GI50 [45]: 2370 nM
TGI [45]: 15500 nM
GI50 [46]: 2430 nM
TGI [46]: 6050 nM
GI50 [47]: 17800 nM
TGI [47]: > 100000 nM
GI50 [48]: 2420 nM
TGI [48]: 6030 nM
GI50 [49]: 1700 nM
TGI [49]: 3300 nM
GI50 [50]: 1990 nM
TGI [50]: 4270 nM
GI50 [51]: 3060 nM
TGI [51]: 9130 nM
GI50 [52]: 2260 nM
TGI [52]: 5250 nM
GI50 [53]: 4300 nM
TGI [53]: > 100000 nM
GI50 [54]: 1620 nM
TGI [54]: 3490 nM
GI50 [55]: 2100 nM
TGI [55]: 6280 nM
GI50 [56]: 2810 nM
TGI [56]: 7390 nM

Cc1ccc(-c2nnc(SCc3ccc(O)c4ncccc34)n2-c2ccccc2)cc1
GI50 [1]: 175 nM
TGI [1]: 2140 nM
GI50 [2]: 353 nM
TGI [2]: 6670 nM
GI50 [3]: 81.9 nM
TGI [3]: > 100000 nM
GI50 [4]: 347 nM
TGI [4]: 2210 nM
GI50 [5]: 236 nM
TGI [5]: 2000 nM
GI50 [6]: 98.9 nM
TGI [6]: 1740 nM
GI50 [7]: 201 nM
TGI [7]: > 21700 nM
GI50 [8]: 376 nM
TGI [8]: > 100000 nM
GI50 [9]: 164 nM
TGI [9]: > 100000 nM
GI50 [10]: 973 nM
TGI [10]: > 100000 nM
GI50 [11]: 192 nM
TGI [11]: > 100000 nM
GI50 [12]: 195 nM
TGI [12]: 1250 nM
GI50 [13]: 249 nM
TGI [13]: 4400 nM
GI50 [14]: 305 nM
TGI [14]: 4240 nM
GI50 [15]: 206 nM
TGI [15]: 3970 nM
GI50 [16]: 1130 nM
TGI [16]: > 100000 nM
GI50 [17]: 298 nM
TGI [17]: > 100000 nM
GI50 [18]: 1440 nM
TGI [18]: 6090 nM
GI50 [19]: 395 nM
TGI [19]: > 60800 nM
GI50 [20]: 272 nM
TGI [20]: 3160 nM
GI50 [21]: 166 nM
TGI [21]: 3240 nM
GI50 [22]: 66.6 nM
TGI [22]: > 100000 nM
GI50 [23]: 337 nM
GI50 [24]: 439 nM
TGI [24]: 24900 nM
GI50 [25]: 329 nM
TGI [25]: > 100000 nM
GI50 [26]: 284 nM
TGI [26]: > 100000 nM
GI50 [27]: 289 nM
TGI [27]: 3530 nM
GI50 [28]: 388 nM
TGI [28]: 4220 nM
GI50 [29]: 345 nM
TGI [29]: 2630 nM
GI50 [57]: 276 nM
TGI [57]: 875 nM
GI50 [30]: 509 nM
TGI [30]: 26700 nM
GI50 [31]: 90.6 nM
TGI [31]: 10900 nM
GI50 [32]: 94.9 nM
TGI [32]: > 100000 nM
GI50 [33]: 294 nM
TGI [33]: > 100000 nM
GI50 [34]: 144 nM
TGI [34]: 8020 nM
GI50 [35]: 312 nM
TGI [35]: 7790 nM
GI50 [36]: 431 nM
TGI [36]: > 100000 nM
GI50 [37]: 155 nM
TGI [37]: 1260 nM
GI50 [38]: 248 nM
TGI [38]: 2680 nM
GI50 [39]: 46.7 nM
TGI [39]: > 35300 nM
GI50 [40]: 232 nM
TGI [40]: > 100000 nM
GI50 [41]: 161 nM
TGI [41]: > 39800 nM
GI50 [42]: 217 nM
TGI [42]: > 100000 nM
GI50 [43]: 38.2 nM
TGI [43]: 1580 nM
GI50 [44]: 110 nM
TGI [44]: > 100000 nM
GI50 [45]: 370 nM
TGI [45]: 4050 nM
GI50 [46]: 254 nM
TGI [46]: > 39800 nM
GI50 [47]: 147 nM
TGI [47]: 2270 nM
GI50 [48]: 366 nM
TGI [48]: > 100000 nM
GI50 [49]: 3780 nM
TGI [49]: > 100000 nM
GI50 [50]: 265 nM
TGI [50]: 4270 nM
GI50 [51]: 326 nM
TGI [51]: > 100000 nM
GI50 [52]: 1500 nM
TGI [52]: 13200 nM
GI50 [53]: 196 nM
TGI [53]: > 100000 nM
GI50 [54]: 399 nM
TGI [54]: 24000 nM
GI50 [55]: 78.2 nM
TGI [55]: > 100000 nM
GI50 [56]: 231 nM
TGI [56]: 31100 nM
